Measured values taken from article PMC5946847, “Synthesis and biological evaluation of aryl-oxadiazoles as inhibitors of Mycobacterium tuberculosis” (Bioorganic & Medicinal Chemistry Letters, 2018).
Values after ≈ are worked out from the molar mass of the structure shown. Where two headings read alike, the source gives them in different places.

Columns and labels:
[1] = Mouse microsomal stability; type: in vitro ADME; settings: mouse, microsomes; for Mouse microsome (% metabolized in 30 min): 0.5 h, 2 μM
Procedure: 4. Method for microsomal stability:
To determine microsomal turnover, test compounds were incubated (2 μM) with liver microsomes in the presence of NADPH, and loss of parent molecule was measured by LC-MS after 30 min.

[2] = physchem
[3] = Mouse pharmacokinetic studies (intravenous and oral); type: in vivo; settings: for AUC0–24: 24 h
Procedure: 5. Method for PK studies:
In Vivo Pharmacokinetic Studies. Compounds 1, 2 and 3 were administered intravenously at 1 mg/kg (1 ml/kg) in Dimethyl acetamide 25%v/v, ethanol 15%v/v, propylene glycol 10%v/v, 2 pyrrolidone 25%v/v, PW 25%v/v in fed animal, or orally at 10 mg/kg (10 ml/kg) in Hydroxyethylcellulose 1% w/v/polysorbate 80 0.25% v/v/Antifoam 1510-US 0.05% v/v/PW (probe sonicate), in fasted animals, respectively. Additional study was conducted for compound 2 wherein the animals were dosed 1-aminobenzotriazole (100 mpk) intraperitoneally one hour prior to dosing compound 2 either intravenously (fed animals) at 1 mg/kg or orally (fasted animals) at 10 mg/kg. Three animals were dosed per study arm.
Serial blood samples were collected at 0.08, 0.25, 0.75, 2, 4, 8, 24 for intravenous and 0.25, 0.5, 1, 2, 4, 8, 24 for oral administration. The blood was collected via a tail snip directly into a 20-μL EDTA-coated capillary and immediately spotted onto a Whatman DMPK-C dried blood sample (DBS) card and analysed using LC-MS/MS, as described previously.^7 Noncompartmental pharmacokinetic parameters were calculated using Watson version 7.4 (Thermo Scientific, Waltham, MA).

[4] = in vitro; type: in vitro ADME; settings: mouse, plasma
Excerpt: Fraction unbound in mouse plasma:^8

[5] = tested on: M. tuberculosis H37Rv expressing DsRed; assay: microbe, parasite or virus in culture; type: cell-based; settings: Mycobacterium tuberculosis, average ± standard deviation for at least 2 runs, read-out: 7H9-Ty-BT MIC
[6] = tested on: M. tuberculosis H37Rv expressing DsRed; assay: microbe, parasite or virus in culture; type: cell-based; settings: Mycobacterium tuberculosis, read-out: 7H9-Tw-OADC MIC
[7] = tested on: Vero cells (ATCC CCL81); assay: Cytotoxicity in Vero cells (CellTiter-Glo); type: cell-based; settings: Chlorocebus sabaeus, 48 h, 2 days
Procedure: Vero cells (ATCC® CCL81) were grown in DMEM, high glucose, GlutaMAX™ (Invitrogen), 10% FBS, 50 units/mL penicillin, and 50 µg/mL streptomycin, seeded as 1200 cells per well in 384-well plates and incubated for 24 h at 37 °C with 5% CO2. Compounds were added as a 3-fold serial dilution series and cells incubated for 2 days at 37 °C with 5% CO2. Viability was measured using CellTiter-Glo® Reagent (Promega).

Row | Structure (SMILES) | CLint scaled at 2 μM [1] [mL/min/kg] | Mouse microsome (% metabolized in 30 min) [1] [%] | solubility ([2]; pH 7.4) [µg/mL] | AUC,u0–24 ([3]; in vivo, iv, 1 mg/kg) [ng·h/mL] | CL,u ([3]; in vivo, iv, 1 mg/kg) [mL/min/kg] | Cl ([3]; in vivo, iv, 1 mg/kg) [mL/min/kg] | Vdss ([3]; in vivo, iv, 1 mg/kg) [L/kg] | Cmax ([3]; in vivo, po, 10 mg/kg) [ng/mL] | Cmax,u ([3]; in vivo, po, 10 mg/kg) [ng/mL] | Tmax ([3]; in vivo, po, 10 mg/kg) [h] | t1/2 ([3]; intravenous 1 mg/kg) [h] | MIC [5] [µM] | MIC [6] [µM] | IC50 [7] [µM] | other results
1 | CN(Cc1nnc(-c2ccco2)o1)Cc1c(F)cccc1Cl [Compound 2] | 1350 | 99 | 77 (≈ 239 µM) | 37 | 455 | 56 | 1.1 | 31 | 3.8 | 0.25 | 0.3 | – | – | – | solubility ([2]; pH 6): 49 µg/mL (≈ 152 µM); AUC0–24 ([3]; in vivo, iv, 1 mg/kg): 300 ng·h/mL; Increase of oral exposure when co-administered with ABT ([3]; in vivo, po, 10 mg/kg): > 10 fold; AUC0–24 ([3]; in vivo, po, 10 mg/kg): 48 ng·h/mL; half-life ([3]; whole blood, intravenous 1 mg/kg, co-administered with ABT (100 mg/kg, 1 h pre-dose)): 1.7 h; fraction unbound at 4.5 h, 1 µM [4]: 0.123
2 | c1csc(-c2nnc(Cc3cccc4ccccc34)o2)c1 [Compound 1] | 3310 | 99 | < 1 | 32 | 1727 | 19 | 0.9 | 19 | 0.2 | 2.75 | 1.2 | – | – | – | AUC(0-t) ([3]; in vivo, iv, 1 mg/kg, AUC0–24): 2900 ng·h/mL; AUC(0-t) at 24 h ([3]; in vivo, po, 10 mg/kg, AUC0–24): 31 ng·h/mL; fraction unbound at 4.5 h, 1 µM [4]: 0.011
3 | CC1CCc2ccccc2N1Cc1nc(-c2ccsc2)no1 (centres unmarked) [Compound 3] | 1910 | 65 | 5 (≈ 16.1 µM) | 6 | 2733 | 41 | 6.3 | 9 | 0.1 | 0.25 | 2.9 | – | – | – | AUC(0-t) at 24 h ([3]; in vivo, iv, 1 mg/kg, AUC0–24): 430 ng·h/mL; AUC(0-t) at 24 h ([3]; in vivo, po, 10 mg/kg, AUC0–24): 10 ng·h/mL; fraction unbound [4]: < 0.015
4 | CN(CCc1c(F)cccc1Cl)c1nnc(-c2ccco2)o1 [Compound 23] | – | 99 | 7 (≈ 21.8 µM) | – | – | – | – | – | – | – | – | 4 ± 0.6 (≈ 1.29 µg/mL) | > 20 | 93 | –
5 | c1csc(-c2nnc(CN3CCc4ccccc4C3)o2)c1 [Compound 28] | – | 99 | 54 (≈ 182 µM) | – | – | – | – | – | – | – | – | 3.7 ± 0.3 (≈ 1.1 µg/mL) | > 20 | > 100 | –
6 | CN(Cc1nnc(-c2ccco2)o1)Cc1c(F)cccc1Cl.O=C(O)/C=C\C(=O)O [Compound 2 maleate salt] | – | – | – | – | – | – | – | – | – | – | – | – | – | – | Aqueous solubility at pH 6 (pH 6): 0.687 mg/mL; Aqueous solubility at pH 7.4 (pH 7.4): 0.717 mg/mL
7 | CN(Cc1nnc(-c2ccco2)o1)C(=O)c1c(F)cccc1Cl [Compound 22] | – | 95 | 640 (≈ 1910 µM) | – | – | – | – | – | – | – | – | > 20 | > 20 | > 100 | –
